# Experimental data reported in patent US12565505B2, “mTORC modulators and uses thereof” (Aeovian Pharmaceuticals, Inc., priority 2019, dated 2026).
# Assays:
# mTORC1 = target: T1, mTORC1 (Homo sapiens, UniProt P42345+P62942); assay: Inhibition assay for mTORC1: phosphorylation of pS6K at Thr389, AlphaLISA SureFire in PC3 cells; format: cell-based; details: PC3 cells, 24 hours treatment, pS6K Thr389; analogs substituted at C40 and C16 (C16 diastereomer mixtures not isolated); read-out: pIC50 mTORC1 (converted)
# T1 construct: endogenous in cells; host or cells: PC3 cells (human prostate adenocarcinoma)
# Experimental: (§1) The IC50s of the inhibition of mTORC1 and mTORC2 were determined in vitro by determining the phosphorylation of pS6K at position Thr389 (mTORC1 inhibition) and pAkt at Ser473 (mTORC2 inhibition). In vitro studies were performed with AiphaLISA® technology using PC3 cells (Prostate Adenocarcinoma; Human (Homo sapiens)). The cells were seeded in 96 well plates and were treated for 24 hours with the different compounds. […] All analysis were performed using GraphPad Prism 7.0 (GraphPad Software, San Diego, USA).
# Tables 5-7 include PIC50 values for mTORC1 of selected compounds; with compounds having an PIC50 for mTORC1 of >9.5 as A, 8.5 to 9.5 as B, and less than 8.5 as C.
# mTORC2 = target: T2, mTORC2 (Homo sapiens, UniProt P42345+P62942); assay: Inhibition assay for mTORC2: phosphorylation of pAkt at Ser473, AlphaLISA SureFire in PC3 cells; format: cell-based; details: PC3 cells, 24 hours treatment, analogs substituted at C40 and C16 (C16 diastereomer mixtures not isolated), read-out: pIC50 mTORC2 (converted)
# T2 construct: endogenous in cells; host or cells: PC3 cells (human prostate adenocarcinoma)
# Experimental: as §1, with “USA). […]” for “USA).”
IC50 (mTORC1),IC50 (mTORC2),SMILES
< 0.000316 µM,1 to 10 µM,COCCOC1C[C@@H]2CC[C@@H](C)[C@@](O)(O2)C(=O)C(=O)N2CCCCC2C(=O)O[C@H]([C@H](C)C[C@@H]2CC[C@@H](OCCCN3CCO[C@H](C)C3)[C@H](OC)C2)CC(=O)[C@H](C)/C=C(\C)[C@@H](O)[C@@H](OC)C(=O)[C@H](C)C[C@H](C)/C=C/C=C/C=C/1C (stereo partly shown) [Compound 36]
0.000316 to 0.00316 µM,> 10 µM,CO[C@@H]1C[C@H](C[C@@H](C)[C@@H]2CC(=O)[C@H](C)/C=C(\C)[C@@H](O)[C@@H](OC)C(=O)[C@H](C)C[C@H](C)/C=C/C=C/C=C(\C)C(OCCO)C[C@@H]3CC[C@@H](C)[C@@](O)(O3)C(=O)C(=O)N3CCCCC3C(=O)O2)CC[C@H]1OCCCc1ccccc1 (stereo partly shown) [Compound 38]
< 0.000316 µM,1 to 10 µM,"CO[C@@H]1C[C@H](C[C@@H](C)[C@@H]2CC(=O)[C@H](C)/C=C(\C)[C@@H](O)[C@@H](OC)C(=O)[C@H](C)C[C@H](C)/C=C/C=C/C=C(\C)C(OCCO)C[C@@H]3CC[C@@H](C)[C@@](O)(O3)C(=O)C(=O)N3CCCCC3C(=O)O2)CC[C@H]1OC(=O)N(C)CCN1CCOCC1 (stereo partly drawn) [Compound 41, [(1R,2R,4S)-4-[(2R)-2-[(1R,9S,12S,15R,16E,18R,19R,21R,23S,24E,26E,28E,32S,35R)-1,18-dihydroxy-30-(2-hydroxyethoxy)-19-methoxy-15,17,21,23,29,35-hexamethyl-2,3,10,14,20-pentaoxo-11,36-dioxa-4-azatricyclo[30.3.1.0^4,9]hexatriaconta-16,24,26,28-tetraen-12-yl]propyl]-2-methoxy-cyclohexyl] N-methyl-N-(2-morpholinoethyl)carbamate]"
< 0.000316 µM,1 to 10 µM,COCCOC1C[C@@H]2CC[C@@H](C)[C@@](O)(O2)C(=O)C(=O)N2CCCCC2C(=O)O[C@H]([C@H](C)C[C@@H]2CC[C@@H](OCCN3CCN(C)CC3)[C@H](OC)C2)CC(=O)[C@H](C)/C=C(\C)[C@@H](O)[C@@H](OC)C(=O)[C@H](C)C[C@H](C)/C=C/C=C/C=C/1C (stereo partly shown) [Compound 47]
< 0.000316 µM,1 to 10 µM,COCCOC1C[C@@H]2CC[C@@H](C)[C@@](O)(O2)C(=O)C(=O)N2CCCCC2C(=O)O[C@H]([C@H](C)C[C@@H]2CC[C@@H](OCCCN3CCOCC3)[C@H](OC)C2)CC(=O)[C@H](C)/C=C(\C)[C@@H](O)[C@@H](OC)C(=O)[C@H](C)C[C@H](C)/C=C/C=C/C=C/1C (stereo partly shown) [Compound 48]
< 0.000316 µM,1 to 10 µM,CO[C@@H]1C[C@H](C[C@@H](C)[C@@H]2CC(=O)[C@H](C)/C=C(\C)[C@@H](O)[C@@H](OC)C(=O)[C@H](C)C[C@H](C)/C=C/C=C/C=C(\C)C(OCCO)C[C@@H]3CC[C@@H](C)[C@@](O)(O3)C(=O)C(=O)N3CCCCC3C(=O)O2)CC[C@H]1OCCCCN1CCOCC1 (stereo partly shown) [Compound 50]
< 0.000316 µM,1 to 10 µM,COCCOC1C[C@@H]2CC[C@@H](C)[C@@](O)(O2)C(=O)C(=O)N2CCCCC2C(=O)O[C@H]([C@H](C)C[C@@H]2CC[C@@H](OCCN3CCCCC3)[C@H](OC)C2)CC(=O)[C@H](C)/C=C(\C)[C@@H](O)[C@@H](OC)C(=O)[C@H](C)C[C@H](C)/C=C/C=C/C=C/1C (stereo partly shown) [Compound 51]
0.000316 to 0.00316 µM,> 10 µM,CO[C@@H]1C[C@H](C[C@@H](C)[C@@H]2CC(=O)[C@H](C)/C=C(\C)[C@@H](O)[C@@H](OC)C(=O)[C@H](C)C[C@H](C)/C=C/C=C/C=C(\C)C(OCCOCCO)C[C@@H]3CC[C@@H](C)[C@@](O)(O3)C(=O)C(=O)N3CCCCC3C(=O)O2)CC[C@H]1OCCCO (stereo partly shown) [Compound 53]
< 0.000316 µM,1 to 10 µM,COCCOC1C[C@@H]2CC[C@@H](C)[C@@](O)(O2)C(=O)C(=O)N2CCCCC2C(=O)O[C@H]([C@H](C)C[C@@H]2CC[C@@H](OCCCN3CCC[C@H](O)C3)[C@H](OC)C2)CC(=O)[C@H](C)/C=C(\C)[C@@H](O)[C@@H](OC)C(=O)[C@H](C)C[C@H](C)/C=C/C=C/C=C/1C (stereo partly shown) [Compound 54]
< 0.000316 µM,1 to 10 µM,"CO[C@@H]1C[C@H](C[C@@H](C)[C@@H]2CC(=O)[C@H](C)/C=C(\C)[C@@H](O)[C@@H](OC)C(=O)[C@H](C)C[C@H](C)/C=C/C=C/C=C(\C)C(OCCO)C[C@@H]3CC[C@@H](C)[C@@](O)(O3)C(=O)C(=O)N3CCCCC3C(=O)O2)CC[C@H]1OCCCN1CCOCC1 (stereo partly drawn) [Compound 55, (1R,9S,12SR,15R,16E,18R,19R,21R,23S,24E,26E,28E,32S,35R)-1,18-dihydroxy-30-(2-hydroxyethoxy)-19-methoxy-12-[(1R)-2-[(1S,3R,4R)-3-methoxy-4-(3-morpholinopropoxy)cyclohexyl]-1-methyl-ethyl]-15,17,21,23,29,35-hexamethyl-11,36-dioxa-4-azatricyclo[30.3.1.0^4,9]hexatriaconta-16,24,26,28-tetraene-2,3,10,14,20-pentone]"
< 0.000316 µM,1 to 10 µM,COCCOC1C[C@@H]2CC[C@@H](C)[C@@](O)(O2)C(=O)C(=O)N2CCCCC2C(=O)O[C@H]([C@H](C)C[C@@H]2CC[C@@H](OCCCCN3CCOCC3)[C@H](OC)C2)CC(=O)[C@H](C)/C=C(\C)[C@@H](O)[C@@H](OC)C(=O)[C@H](C)C[C@H](C)/C=C/C=C/C=C/1C (stereo partly shown) [Compound 56]
< 0.000316 µM,1 to 10 µM,COCCOC1C[C@@H]2CC[C@@H](C)[C@@](O)(O2)C(=O)C(=O)N2CCCCC2C(=O)O[C@H]([C@H](C)C[C@@H]2CC[C@@H](OC(=O)NCCN3CCCCC3)[C@H](OC)C2)CC(=O)[C@H](C)/C=C(\C)[C@@H](O)[C@@H](OC)C(=O)[C@H](C)C[C@H](C)/C=C/C=C/C=C/1C (stereo partly shown) [Compound 57]
< 0.000316 µM,1 to 10 µM,COCCOC1C[C@@H]2CC[C@@H](C)[C@@](O)(O2)C(=O)C(=O)N2CCCCC2C(=O)O[C@H]([C@H](C)C[C@@H]2CC[C@@H](OC[C@@H](O)CO)[C@H](OC)C2)CC(=O)[C@H](C)/C=C(\C)[C@@H](O)[C@@H](OC)C(=O)[C@H](C)C[C@H](C)/C=C/C=C/C=C/1C (stereo partly shown) [Compound 58]
< 0.000316 µM,1 to 10 µM,COCCOC1C[C@@H]2CC[C@@H](C)[C@@](O)(O2)C(=O)C(=O)N2CCCCC2C(=O)O[C@H]([C@H](C)C[C@@H]2CC[C@@H](OCCCN3C[C@@H](C)O[C@@H](C)C3)[C@H](OC)C2)CC(=O)[C@H](C)/C=C(\C)[C@@H](O)[C@@H](OC)C(=O)[C@H](C)C[C@H](C)/C=C/C=C/C=C/1C (stereo partly shown) [Compound 59]
< 0.000316 µM,1 to 10 µM,CO[C@@H]1C[C@H](C[C@@H](C)[C@@H]2CC(=O)[C@H](C)/C=C(\C)[C@@H](O)[C@@H](OC)C(=O)[C@H](C)C[C@H](C)/C=C/C=C/C=C(\C)C(OCCCCO)C[C@@H]3CC[C@@H](C)[C@@](O)(O3)C(=O)C(=O)N3CCCCC3C(=O)O2)CC[C@H]1OCCO (stereo partly shown) [Compound 63]
0.000316 to 0.00316 µM,> 10 µM,CO[C@@H]1C[C@H](C[C@@H](C)[C@@H]2CC(=O)[C@H](C)/C=C(\C)[C@@H](O)[C@@H](OC)C(=O)[C@H](C)C[C@H](C)/C=C/C=C/C=C(\C)C(OCCO)C[C@@H]3CC[C@@H](C)[C@@](O)(O3)C(=O)C(=O)N3CCCCC3C(=O)O2)CC[C@H]1OC(=O)NCCO (stereo partly shown) [Compound 64]
< 0.000316 µM,1 to 10 µM,COCCCCOC1C[C@@H]2CC[C@@H](C)[C@@](O)(O2)C(=O)C(=O)N2CCCCC2C(=O)O[C@H]([C@H](C)C[C@@H]2CC[C@@H](OCCCN3CCOCC3)[C@H](OC)C2)CC(=O)[C@H](C)/C=C(\C)[C@@H](O)[C@@H](OC)C(=O)[C@H](C)C[C@H](C)/C=C/C=C/C=C/1C (stereo partly shown) [Compound 65]
0.000316 to 0.00316 µM,> 10 µM,CO[C@@H]1C[C@H](C[C@@H](C)[C@@H]2CC(=O)[C@H](C)/C=C(\C)[C@@H](O)[C@@H](OC)C(=O)[C@H](C)C[C@H](C)/C=C/C=C/C=C(\C)C(OCCOCCO)C[C@@H]3CC[C@@H](C)[C@@](O)(O3)C(=O)C(=O)N3CCCCC3C(=O)O2)CC[C@H]1OCCO (stereo partly shown) [Compound 69]
0.000316 to 0.00316 µM,> 10 µM,CO[C@@H]1C[C@H](C[C@@H](C)[C@@H]2CC(=O)[C@H](C)/C=C(\C)[C@@H](O)[C@@H](OC)C(=O)[C@H](C)C[C@H](C)/C=C/C=C/C=C(\C)C(OC3COC3)C[C@@H]3CC[C@@H](C)[C@@](O)(O3)C(=O)C(=O)N3CCCCC3C(=O)O2)CC[C@H]1OC(=O)NCCN1CCOCC1 (stereo partly shown) [Compound 71]

SMILES,IC50 (mTORC1),IC50 (mTORC2)
"COCCCCOC1C[C@@H]2CC[C@@H](C)[C@@](O)(O2)C(=O)C(=O)N2CCCCC2C(=O)O[C@H]([C@H](C)C[C@@H]2CC[C@@H](OCCCO)[C@H](OC)C2)CC(=O)[C@H](C)/C=C(\C)[C@@H](O)[C@@H](OC)C(=O)[C@H](C)C[C@H](C)/C=C/C=C/C=C/1C (stereo partly drawn) [Compound 70, (1R,9S,12S,15R,16E,18R,19R,21R,23S,24E,26E,28E,32S,35R)-1,18-dihydroxy-12-[(1R)-2-[(1S,3R,4R)-4-(3-hydroxypropoxy)-3-methoxy-cyclohexyl]-1-methyl-ethyl]-19-methoxy-30-(4-methoxybutoxy)-15,17,21,23,29,35-hexamethyl-11,36-dioxa-4-azatricyclo[30.3.1.0^4,9]hexatriaconta-16,24,26,28-tetraene-2,3,10,14,20-pentone]",< 0.000316 µM,1 to 10 µM
